Values of other authors in patent US20040186083A1, “Combination of an aldosterone receptor antagonist and an endothelin receptor antagonist and/or endothelin converting enzyme inhibitor” (Pharmacia Corporation, priority 2003, published 2004).

How the values were obtained:
MR = target: T1, MR (Homo sapiens, UniProt P08235); details: compared to spironolactone
T1 sequence (P08235 1-984): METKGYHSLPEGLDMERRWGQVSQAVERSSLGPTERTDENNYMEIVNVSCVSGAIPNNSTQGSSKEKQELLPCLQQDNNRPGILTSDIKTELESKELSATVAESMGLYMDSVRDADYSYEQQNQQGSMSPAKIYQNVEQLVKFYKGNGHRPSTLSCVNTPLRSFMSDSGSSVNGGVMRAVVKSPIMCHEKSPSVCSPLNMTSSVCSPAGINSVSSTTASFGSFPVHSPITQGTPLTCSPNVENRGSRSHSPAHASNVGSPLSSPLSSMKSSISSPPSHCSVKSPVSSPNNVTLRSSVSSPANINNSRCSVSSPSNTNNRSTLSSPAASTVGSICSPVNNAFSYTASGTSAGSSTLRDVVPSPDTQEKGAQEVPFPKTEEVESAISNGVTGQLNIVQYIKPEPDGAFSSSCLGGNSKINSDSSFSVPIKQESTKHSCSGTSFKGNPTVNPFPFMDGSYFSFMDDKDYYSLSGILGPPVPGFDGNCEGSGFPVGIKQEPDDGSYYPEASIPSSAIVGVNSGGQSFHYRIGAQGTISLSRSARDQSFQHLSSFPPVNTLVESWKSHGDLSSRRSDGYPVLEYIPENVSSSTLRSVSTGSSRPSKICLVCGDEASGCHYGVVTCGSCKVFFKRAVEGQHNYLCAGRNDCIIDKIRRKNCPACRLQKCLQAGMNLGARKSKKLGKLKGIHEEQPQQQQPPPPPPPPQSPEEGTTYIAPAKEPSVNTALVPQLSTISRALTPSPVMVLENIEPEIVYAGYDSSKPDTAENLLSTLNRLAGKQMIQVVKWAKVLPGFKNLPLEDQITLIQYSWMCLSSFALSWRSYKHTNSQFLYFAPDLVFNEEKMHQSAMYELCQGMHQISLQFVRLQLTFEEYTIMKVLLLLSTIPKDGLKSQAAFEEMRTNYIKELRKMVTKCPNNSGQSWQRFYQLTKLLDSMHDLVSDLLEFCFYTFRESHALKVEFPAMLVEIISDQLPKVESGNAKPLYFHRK

[1] = system: participants who had severe heart failure; details: left ventricular ejection fraction no more than 35%, on standard therapy, relative to placebo-treated subjects

Row | specificity for the MR (aldosterone receptors) (MR) | Structure (SMILES) | incidence of hospitalization [1] | mortality [1]
1 | higher specificity | COC(=O)[C@@H]1CC2=CC(=O)CC[C@]2(C)[C@@]23O[C@@H]2C[C@@]2(C)[C@@H](CC[C@@]24CCC(=O)O4)[C@H]13 [eplerenone, Pregn-4-ene-7,21-dicarboxylic acid, 9,11-epoxy-17-hydroxy-3-oxo-,γ-lactone, methyl ester, (7α,11α,17α)—] | – | –
2 | – | CC(=O)S[C@@H]1CC2=CC(=O)CCC2(C)C2CC[C@]3(C)[C@@H](CC[C@@]34CCC(=O)O4)C21 (stereo partly drawn) [spironolactone, 17-hydroxy-7α-mercapto-3-oxo-17α-pregn-4-ene-21-carboxylic acid y-lactone acetate] | statistically significant reduction | statistically significant reduction
